In patent publication US20100310471A1, “ANTIOXIDANT AND PARAMAGNETIC HEPARIN-NITROXIDE DERIVATIVES” (Johannes Gutenberg-Universität Mainz, priority 2007, published 2010):

Legend:
[1] = EPR spectra of H—NRs in aqueous solution (line width); format: physicochemical; details: 0.1 mM aqueous solutions, pH 7.4, room temperature, X-band
Method: FIG. 2. Spectra EPR of TEMPO and different H—NRs (0.1 mM aqueous solutions, pH 7.4). EPR spectra were recorded at room temperature using an X-band radiospectrometer MS200 (Magnettech GmbH, Berlin). Instrument parameters were 10 mW microwave power, 0.1 mT amplitude modulation, 100 kHz modulation frequency, sweep field 11 mT and 120 s sweep time.
The line widths of the EPR signals of all H—NRs were slightly broader in comparison to the EPR signal of TEMPOL, indicating slight decrease in the mobility of nitroxyl groups upon binding to heparin as well as spin-spin interactions between them. Thus, ΔH (in gauss) were 1.8, 2.1, 2.5, 2.0 and 2.5 for TEMPOL, H—NR-1, H—NR-2, H—NR-3 and H—NR-4, respectively. The line width the signal is critical for the in vivo EPR imaging. A narrower signal provides for better resolution, and is therefore preferred. As a result, the H—NR-3, in which nitroxide is bound to heparin via a linker, provides for a higher spectral mobility, and is thus preferred for EPR imaging.

[2] = test system: heparin-binding sites of the vascular wall (rat aorta); assay: Binding to rat aortic rings, detected by EPR (X-band) after wash with Krebs; details: for replacement of heparin-nitroxide from heparin-binding sites of rat aorta by dextran: 100 μM H—NR-2, 1 hr, 37° C., with 1 mM or 10 mM dextran (up to 100 molar excess)
Method: Therefore, the heparin-nitroxide derivative of the present invention is able to specifically bind with high affinity to specific sites in biological vessels.
FIG. 4. Spectra EPR, (A) 10 μM H—NR-1 solution; (B) rat aortic ring (3 mm long) pre-incubated with 10 μM H—NR-1 for 1 hour and then washed 3 times with Krebs buffer; (C) rat aortic ring (3 mm long) pre-incubated with 10 μM H—NR-1 in the presence of heparin (liquemin, 30 units/ml) for 1 hour and then washed 3 times with Krebs buffer; (D) 5 μM 4-hydroxy-TEMPO; (E) rat aortic ring (3 mm long) pre-incubated with 10 μM 4-hydroxy-TEMPO for 1 hour and then washed 3 times with Krebs buffer. EPR spectra were recorded at room temperature using an X-band radiospectrometer MS200 (Magnettech GmbH, Berlin). Instrument parameters were 10 mW microwave power, 0.1 mT amplitude modulation, 100 kHz modulation frequency, sweep field 5 mT and 60 s sweep time. Representative spectra of 3 experiments are shown.
FIG. 5. The binding of H—NR-1 to rat aorta as a function of time and concentration. Rat aortic rings (3 mm long) were incubated (37° C.) with 10 μM or 100 μM H—NR-1 either for 0.5 hr, 1 hr, 1.5 hr, 2 hr, 3 hr and then washed out with Krebs solution. To estimate the amount of H—NR-1 bound to tissue, aortic rings were placed in capillaries, and spectra EPR(X-band) were recorded.
FIG. 6. […] Rat aortic rings (3 mm long) with or without endothelium were incubated (37° C.) with 10 μM H—NR-1 for 1 hr and then washed out with Krebs solution. To estimate the amount of H—NR-1 bound to tissue, aortic rings were placed in capillaries and spectra EPR(X-band) were recorded at room temperature.
FIG. 12. […] Rat aortic rings (3 mm long) were incubated (37° C.) with 100 μM H—NR-2 for 1 hr and then washed out with Krebs solution. Rings were incubated with H—NR-2 along (A) or in the presence of 1 mM dextran (B), or in the presence of 10 mM dextran (C). To estimate the amount of H—NR-2 bound to tissue, aortic rings were placed in capillaries, and spectra EPR(X-band) were recorded.

[3] = known value; cited from earlier work

| Molecule | ΔH, line width of the EPR signal [1] | binding to rat aorta (EPR signal in tissue after wash) ([2]; aortic ring pre-incubated with 10 μM for 1 hour, washed 3 times with Krebs buffer) | half-life in vivo [3] | replacement of heparin-nitroxide from heparin-binding sites of rat aorta by dextran [2] | replacement of heparin-nitroxide from heparin-binding sites of rat aorta by dextran ([2]; listed as Dextran) |
| --- | --- | --- | --- | --- | --- |
| CC1(C)CC(O)CC(C)(C)N1[O] [TEMPOL, 4-hydroxy-2,2,6,6-tetramethylpiperidine-N-oxyl] | 1.8 gauss | did not result in the appearance of the EPR signal in tissue | only a few minutes |  |  |
| dextran |  |  |  | unable to replace heparin-nitroxide from the vascular tissue | unable to replace Heparin-nitroxide |
